Values of other authors, collected in PubChem BioAssay AID1259409 (Chemical Carcinogenesis Research Information System (CCRIS), 2018).

System: rodent chemically induced tumor inhibition, incidence and multiplicity
Assay: CCRIS tumor inhibitor studies
Conditions: Carcinogen: AZOXYMETHANE, 25843-45-2, Dose [Inhibitor]: 0, Route [Inhibitor]: ORAL, Species: RAT, Strain/Sex: F344/MALE, Dose [Carcinogen]: 15 MG/KG BW 1/WK FOR 3 WK, Promoter: NONE USED

## O=C(O)c1ccc(O)c(O)c1
500 PPM IN DIET FOR 4 WK BEGINNING 1 WK PRIOR TO CARCINOGEN TREATMENT (STUDY DURATION: 32 WK), Target Tissue: Type of Lesion: COLON: ADENOCARCINOMA
  tumour outcome (control, treated, inhibition, significance): 75%, 55%, 27%, not significant
500 PPM IN DIET FOR 4 WK BEGINNING 1 WK PRIOR TO CARCINOGEN TREATMENT (STUDY DURATION: 32 WK), Target Tissue: Type of Lesion: COLON: ADENOMA
  tumour outcome (control, treated, inhibition, significance): 10%, 5%, 50%, not significant
500 PPM IN DIET FOR 4 WK BEGINNING 1 WK PRIOR TO CARCINOGEN TREATMENT (STUDY DURATION: 32 WK), Target Tissue: Type of Lesion: LARGE INTESTINE: ADENOCARCINOMA
  tumour outcome (control, treated, inhibition, significance): 15/20 (75%), 11/20 (55%), 27%, not significant
500 PPM IN DIET FOR 4 WK BEGINNING 1 WK PRIOR TO CARCINOGEN TREATMENT (STUDY DURATION: 32 WK), Target Tissue: Type of Lesion: LARGE INTESTINE: ADENOMA
  tumour outcome (control, treated, inhibition, significance): 2/20 (10%), 1/20 (5%), 50%, not significant
500 PPM IN DIET FOR 4 WK BEGINNING 1 WK PRIOR TO CARCINOGEN TREATMENT (STUDY DURATION: 32 WK), Target Tissue: Type of Lesion: SMALL INTESTINE: ADENOCARCINOMA
  tumour outcome (control, treated, inhibition, significance): 6/20 (30%), 6/20 (30%), 0%, not significant
500 PPM IN DIET FOR 4 WK BEGINNING 1 WK PRIOR TO CARCINOGEN TREATMENT (STUDY DURATION: 32 WK), Target Tissue: Type of Lesion: SMALL INTESTINE: ADENOMA
  tumour outcome (control, treated, inhibition, significance): 1/20 (5%), 0/20 (0%), 100%, not significant
500 PPM IN DIET FOR 28 WK BEGINNING 1 WK POST CARCINOGEN TREATMENT (STUDY DURATION: 32 WK), Target Tissue: Type of Lesion: COLON: ADENOCARCINOMA
  tumour outcome (control, treated, inhibition, significance): 75%, 40%, 47%, not significant
500 PPM IN DIET FOR 28 WK BEGINNING 1 WK POST CARCINOGEN TREATMENT (STUDY DURATION: 32 WK), Target Tissue: Type of Lesion: LARGE INTESTINE: ADENOCARCINOMA
  tumour outcome (control, treated, inhibition, significance): 15/20 (75%), 8/20 (40%), 47%, not significant
500 PPM IN DIET FOR 28 WK BEGINNING 1 WK POST CARCINOGEN TREATMENT (STUDY DURATION: 32 WK), Target Tissue: Type of Lesion: LARGE INTESTINE: ADENOMA
  tumour outcome (control, treated, inhibition, significance): 2/20 (10%), 3/20 (15%), -50%, not significant
500 PPM IN DIET FOR 28 WK BEGINNING 1 WK POST CARCINOGEN TREATMENT (STUDY DURATION: 32 WK), Target Tissue: Type of Lesion: SMALL INTESTINE: ADENOCARCINOMA
  tumour outcome (control, treated, inhibition, significance): 6/20 (30%), 1/20 (5%), 83%, not significant
500 PPM IN DIET FOR 28 WK BEGINNING 1 WK POST CARCINOGEN TREATMENT (STUDY DURATION: 32 WK), Target Tissue: Type of Lesion: SMALL INTESTINE: ADENOMA
  tumour outcome (control, treated, inhibition, significance): 1/20 (5%), 0/20 (0%), 100%, not significant
1000 PPM IN DIET FOR 4 WK BEGINNING 1 WK PRIOR TO CARCINOGEN TREATMENT (STUDY DURATION: 32 WK), Target Tissue: Type of Lesion: COLON: ADENOCARCINOMA
  tumour outcome (control, treated, inhibition, significance): 75%, 30%, 60%, p<0.05
1000 PPM IN DIET FOR 4 WK BEGINNING 1 WK PRIOR TO CARCINOGEN TREATMENT (STUDY DURATION: 32 WK), Target Tissue: Type of Lesion: COLON: ADENOMA
  tumour outcome (control, treated, inhibition, significance): 10%, 9%, 10%, not significant
1000 PPM IN DIET FOR 4 WK BEGINNING 1 WK PRIOR TO CARCINOGEN TREATMENT (STUDY DURATION: 32 WK), Target Tissue: Type of Lesion: LARGE INTESTINE: ADENOCARCINOMA
  tumour outcome (control, treated, inhibition, significance): 15/20 (75%), 7/23 (30%), 60%, p<0.006
1000 PPM IN DIET FOR 4 WK BEGINNING 1 WK PRIOR TO CARCINOGEN TREATMENT (STUDY DURATION: 32 WK), Target Tissue: Type of Lesion: LARGE INTESTINE: ADENOMA
  tumour outcome (control, treated, inhibition, significance): 2/20 (10%), 2/23 (9%), 10%, not significant
1000 PPM IN DIET FOR 4 WK BEGINNING 1 WK PRIOR TO CARCINOGEN TREATMENT (STUDY DURATION: 32 WK), Target Tissue: Type of Lesion: SMALL INTESTINE: ADENOCARCINOMA
  tumour outcome (control, treated, inhibition, significance): 6/20 (30%), 8/23 (35%), -17%, not significant
1000 PPM IN DIET FOR 4 WK BEGINNING 1 WK PRIOR TO CARCINOGEN TREATMENT (STUDY DURATION: 32 WK), Target Tissue: Type of Lesion: SMALL INTESTINE: ADENOMA
  tumour outcome (control, treated, inhibition, significance): 1/20 (5%), 1/23 (4%), 20%, not significant
1000 PPM IN DIET FOR 28 WK BEGINNING 1 WK POST CARCINOGEN TREATMENT (STUDY DURATION: 32 WK), Target Tissue: Type of Lesion: COLON: ADENOCARCINOMA
  tumour outcome (control, treated, inhibition, significance): 75%, 22%, 71%, p<0.05
1000 PPM IN DIET FOR 28 WK BEGINNING 1 WK POST CARCINOGEN TREATMENT (STUDY DURATION: 32 WK), Target Tissue: Type of Lesion: COLON: ADENOMA
  tumour outcome (control, treated, inhibition, significance): 10%, 9%, 10%, not significant
1000 PPM IN DIET FOR 28 WK BEGINNING 1 WK POST CARCINOGEN TREATMENT (STUDY DURATION: 32 WK), Target Tissue: Type of Lesion: LARGE INTESTINE: ADENOCARCINOMA
  tumour outcome (control, treated, inhibition, significance): 15/20 (75%), 5/23 (22%), 71%, p<0.008
